Values joined by “and” are separate entries in the source; they are usually repeats but may differ in a detail not shown here. Equal values may be shown once.
System: CEM cells
Experiment: Targeted LC-MS/MS-MRM of de novo and salvage dCTP biosynthesis (nucleotide pools and newly replicated DNA)
Assay type: cell-based, human
Set-up: key to Substrate utilization Glucose / Substrate utilization dC: ↓: partial decrease/inhibition; ↓↓↓: nearly complete inhibition; ↑: increase; ⟷: no change
Experimental: Cells were transferred into RPMI-1640 without glucose and supplemented with 10% dialyzed FBS (Gibco) containing the following labeled substrates: precursors for de novo [U-^13C6]glucose (Sigma-Aldrich, 389374) at 11 mM; precursors for purine salvage [U-^13C10,^15N5]dA (Cambridge Isotopes, CIL 3896), [^15N5]dA (Cambridge Isotopes, NLM-3895) and [^15N5]dG (Cambridge Isotopes, NLM-3899) at 5 µM or as indicated; and precursors for pyrimidine salvage: [U-^13C9,^15N3]dC (Silantes, 124603602) and [U-^13C10,^15N2]dT (Cambridge Isotopes, CNLM-3902) at 5 µM and [^15N2]orotate (Cambridge Isotopes, NLM-1048) at indicated concentrations. The cells were incubated for 12 h or as indicated before sample collection and processing.
The rates of dCTP incorporation into the DNA were determined using linear regression with procedure GLM in SAS (v. 9.4). DNA % label was transformed using a shifted log addition of 1 due to the presence of zeros in the data set. Rates were calculated using the slope of the regression line for the log transformed data and are presented in the table with the associated standard errors, along with the ratio between the rate of incorporation into DNA by the de novo and salvage pathways (Table 1).
Cell cycle synchronization. Cells were treated with a CDK4/6 inhibitor, Pablociclib or PD-0332991 (Selleckchem, S1116) for 18 h to synchronize them in the G1 phase. Subsequently, cells were washed twice with PBS containing 2% FBS (Omega Scientific) and released into fresh media. […]
Clinical Microarray Core on an Illumina HiSeq3000 using the SeqCap EZ Exome Enrichment Kit v3.0 (Roche).
Reads were mapped to UCSC hg19 (bwa-mem), deduplicaed (PicardTools), and subjected to base quality score recalibration and realignment around known indels according to the Broad Institute Genome Analysis Toolkit (GATK) Best Practices v3.0. Variants in genes associated with nucleotide biosynthesis were identified using the GATK HaplotypeCaller, and annotated with Oncotator (http://portals.broadinstitute.org/oncotator/). dNTP sample processing. 0.5 – 1 x 10^6 cells were collected into 1.5 mL microcentrifuge tubes and centrifuged (450 x g, 4 min, 4 °C). The supernatant was carefully aspirated and the cells were washed twice with 1 mL of cold PBS, followed each time by centrifugation (450 x g, 4 min 4 °C). The PBS were aspirated.
Thereafter, the pellets were treated with 10 µL of 10% trifluoroacetic acid with internal standards (1 µM […]
s, and incubated on ice for 10 min. 40 µL of 500 mM ammonium acetate, pH = 9.3, with the same internal standard (1 µM [15N3]dCMP and [15N3]dCTP) was then added and the samples were vigorously vortexed again for 30 s. The samples were centrifuged (14,000 x g, 10 min, 4 °C) to remove cell debris. The supernatants (~ 40 µL) were transferred into HPLC injector vials. Stock solutions (10 mM) of rCTP, rCDP, dCMP, dCDP, and dCTP (Sigma Aldrich) were prepared individually in water, and stored at –20 °C before use to generate calibration standards. Calibration standards were prepared and mixed together in water with internal standards (1 µM [15N3]dCMP and [15N3]dCTP) to make working stock concentrations in 100 nM – 100 µM range.
Calibration standards were diluted 10-fold into the same nucleotide extraction solution of 10% TFA/500 mM ammonium acetate (1:4, v/v) with internal standards (1 µM [15N3]dCMP and [15N3]dCTP) to give a final concentration in 10 nM – 10 µM. Nucleotide and calibration samples were processed together to minimize […]
DNA sample processing. Genomic DNA from 0.5 – 1 x 10^4 cells was extracted using the Quick-gDNA MiniPrep kit (Zymo Research, D3021) and hydrolyzed to nucleosides using the DNA Degradase Plus kit (Zymo Research, E2021), following manufacturer-supplied instructions. In the final step of DNA extraction, 50 µL of […]
water was used to elute the DNA into 1.5 mL microcentrifuge tubes. A nuclease solution (5 µL; 10X buffer/DNA Degradase Plus™/water, 2.5/1/1.5, v/v/v) was added to 20 µL of the eluted genomic DNA in an HPLC injector […]
vial. […]

[1] = CEM 12 h, 1 uM VE-822, 1 uM DI-82, 500 nM 3-AP, #1-#3
[2] = CEM after release from G1 arrest

For CNCc1ccc(-c2cc(-c3nc(-c4ccc(S(=O)(=O)C(C)C)cc4)cnc3N)on2)cc1 [VE-822], the “reduction in overall DNA labeling compared to untreated cells” value (12 h time point after release from G1 arrest) was 30%, the “% sum abundance, de novo DNA-C, mass increase in nucleobase +0, in deoxyribose +3” value [1] was 0.14% and 0.15% and 0.16% and the “% sum abundance, de novo DNA-C, mass increase in nucleobase +0, in deoxyribose +4” value [1] was 0.43% and 0.45% and 0.46%. For the same compound, the “% sum abundance, de novo DNA-C, mass increase in nucleobase +0, in deoxyribose +5” value [1] was 7.38% and 7.69% and 7.03%, the “% sum abundance, de novo DNA-C, mass increase in nucleobase +1, in deoxyribose +3” value [1] was 0.00% and the “% sum abundance, de novo DNA-C, mass increase in nucleobase +1, in deoxyribose +4” value [1] was 0.06% and 0.0569% and 0.066%. The “% sum abundance, de novo DNA-C, mass increase in nucleobase +1, in deoxyribose +5” value [1] was 0.95% and 0.96% and 0.91%, the “% sum abundance, de novo DNA-C, mass increase in nucleobase +2, in deoxyribose +4” value [1] was 0.0654% and 0.0348% and 0.0476% and the “% sum abundance, de novo DNA-C, mass increase in nucleobase +2, in deoxyribose +5” value [1] was 0.64% and 0.67% and 0.62%. For the same compound, the “% sum abundance, de novo DNA-C, mass increase in nucleobase +3, in deoxyribose +4” value [1] was 0.00%, the “% sum abundance, de novo DNA-C, mass increase in nucleobase +3, in deoxyribose +5” value [1] was 0.16% and 0.17% and 0.14% and the “% sum abundance, de novo DNA-C, mass increase in nucleobase +4, in deoxyribose +4” value [1] was 0.00%. The “% sum abundance, de novo DNA-C, mass increase in nucleobase +4, in deoxyribose +5” value [1] was 0.00%, the “% sum abundance, salvage DNA-C, mass increase in nucleobase +5, in deoxyribose +0” value [1] was 0.00% and the “% sum abundance, salvage DNA-C, mass increase in nucleobase +5, in deoxyribose +4” value [1] was 0.00%. The “% sum abundance, salvage DNA-C, mass increase in nucleobase +5, in deoxyribose +5” value [1] was 0.00%, the “% sum abundance, salvage DNA-C, mass increase in nucleobase +6, in deoxyribose +0” value [1] was 0.00% and the “% sum abundance, salvage DNA-C, mass increase in nucleobase +6, in deoxyribose +4” value [1] was 0.00%. For the same compound, the “% sum abundance, salvage DNA-C, mass increase in nucleobase +6, in deoxyribose +5” value [1] was 0.09%, the “% sum abundance, salvage DNA-C, mass increase in nucleobase +7, in deoxyribose +0” value [1] was 0.00% and the “% sum abundance, salvage DNA-C, mass increase in nucleobase +7, in deoxyribose +4” value [1] was 0.06% and 0.07%. For the same compound, the “% sum abundance, salvage DNA-C, mass increase in nucleobase +7, in deoxyribose +5” value [1] was 1.08% and 1.19% and 1.11%, the “% sum abundance, unlabeled DNA-C, mass increase in nucleobase +0, in deoxyribose +0” value [1] was 78.84% and 78.52% and 79.31% and the “% sum abundance, unlabeled DNA-C, mass increase in nucleobase +0, in deoxyribose +1” value [1] was 4.53% and 4.48% and 4.46%. For the same compound, the “% sum abundance, unlabeled DNA-C, mass increase in nucleobase +0, in deoxyribose +2” value [1] was 0.68% and 0.72%, the “% sum abundance, unlabeled DNA-C, mass increase in nucleobase +1, in deoxyribose +0” value [1] was 4.47% and 4.26% and 4.33% and the “% sum abundance, unlabeled DNA-C, mass increase in nucleobase +1, in deoxyribose +1” value [1] was 0.21% and 0.22% and 0.24%. The “% sum abundance, unlabeled DNA-C, mass increase in nucleobase +1, in deoxyribose +2” value [1] was 0.00%, the “% sum abundance, unlabeled DNA-C, mass increase in nucleobase +2, in deoxyribose +0” value [1] was 0.24% and 0.27% and 0.28% and the “% sum abundance, unlabeled DNA-C, mass increase in nucleobase +2, in deoxyribose +1” value [1] was 0.00%. For the same compound, the “% sum abundance, unlabeled DNA-C, mass increase in nucleobase +2, in deoxyribose +2” value [1] was 0.00%, the “% sum abundance, unlabeled DNA-C, mass increase in nucleobase +3, in deoxyribose +0” value [1] was 0.00% and the “% sum abundance, unlabeled DNA-C, mass increase in nucleobase +3, in deoxyribose +1” value [1] was 0.00%. For the same compound, the “% sum abundance, unlabeled DNA-C, mass increase in nucleobase +4, in deoxyribose +0” value [1] was 0.00%, the “De novo: rate of dCTP incorporation into newly replicated DNA (slope ± standard error of regression line)” value [2] was 0.17 ± 0.01 arbitrary unit and the “Ratio (salvage/de novo)” value [2] was 0.85. The “Salvage: rate of dCTP incorporation into newly replicated DNA (slope ± standard error of regression line)” value [2] was 0.14 ± 0.01 arbitrary unit, the “free dCTP levels or their biosynthetic origins” value (after release from G1 arrest) was “did not alter” and the “decrease of [13C6]glucose labeling of the rCDP pool” value (asynchronous CEM, 12 h) was 40%. The “reduction of dCK activity (contribution of labeled [13C9,15N3]dC to intracellular dCMP)” value (asynchronous CEM, 12 h) was ~ 33%, the “Substrate utilization Glucose” value (summary Fig. 2g, CEM cells) was “↓” and the “Substrate utilization dC” value (summary Fig. 2g, CEM cells) was “↓”.
